Columns and labels:
[1] = Metabolic stability in mouse liver microsomes assessed as compound remaining at 0.5 uM incubated for 10 mins in presence of NADPH by UV absorbance based assay; type: ADME, Microsome; conditions: read-out: Stability
[2] = Metabolic stability in human liver microsomes assessed as compound remaining at 0.5 uM incubated for 10 mins in presence of NADPH by UV absorbance based assay; type: ADME, Microsome; conditions: read-out: Stability
[3] = Clearance in nontumor bearing Balb/C mouse at 0.5 mg/kg; type: ADME, organism-based; conditions: in vivo
[4] = molecular target: T1, Toll-like receptor 8 (Homo sapiens, UniProt Q9NR97); assay: Agonist activity at human TLR8
T1 sequence (Q9NR97 whole entry): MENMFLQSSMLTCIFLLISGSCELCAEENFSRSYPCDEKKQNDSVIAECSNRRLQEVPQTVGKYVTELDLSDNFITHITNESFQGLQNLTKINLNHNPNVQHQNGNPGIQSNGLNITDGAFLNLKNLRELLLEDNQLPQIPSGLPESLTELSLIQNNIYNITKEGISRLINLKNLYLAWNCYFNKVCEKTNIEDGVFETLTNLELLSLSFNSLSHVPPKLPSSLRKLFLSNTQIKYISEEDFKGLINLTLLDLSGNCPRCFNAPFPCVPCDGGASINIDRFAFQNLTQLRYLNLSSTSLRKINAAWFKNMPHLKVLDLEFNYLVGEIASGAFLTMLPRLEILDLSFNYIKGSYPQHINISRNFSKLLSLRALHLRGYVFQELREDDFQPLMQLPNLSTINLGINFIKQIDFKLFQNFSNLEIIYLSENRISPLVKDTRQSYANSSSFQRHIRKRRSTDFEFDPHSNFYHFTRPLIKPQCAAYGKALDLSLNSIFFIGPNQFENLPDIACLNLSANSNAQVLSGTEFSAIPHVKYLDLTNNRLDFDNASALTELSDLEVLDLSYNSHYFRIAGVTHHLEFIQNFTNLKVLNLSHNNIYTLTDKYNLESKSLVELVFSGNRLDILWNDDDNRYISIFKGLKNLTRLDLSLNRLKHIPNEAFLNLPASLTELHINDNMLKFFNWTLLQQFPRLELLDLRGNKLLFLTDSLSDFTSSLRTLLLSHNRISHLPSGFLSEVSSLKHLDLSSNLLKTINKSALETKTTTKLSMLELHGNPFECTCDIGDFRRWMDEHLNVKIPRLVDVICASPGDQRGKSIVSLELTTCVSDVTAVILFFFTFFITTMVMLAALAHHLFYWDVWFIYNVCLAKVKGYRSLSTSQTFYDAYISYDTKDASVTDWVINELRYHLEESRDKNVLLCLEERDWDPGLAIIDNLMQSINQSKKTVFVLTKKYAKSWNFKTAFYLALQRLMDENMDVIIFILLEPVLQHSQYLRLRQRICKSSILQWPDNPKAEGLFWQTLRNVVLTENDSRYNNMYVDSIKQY

[5] = AUClast in nontumor bearing Balb/C mouse at 0.5 mg/kg; type: ADME, organism-based; set-up: dose 0.5 mg/kg; conditions: in vivo
[6] = Drug concentration in nontumor bearing Balb/C mouse at 0.5 mg/kg measured after 5 mins; type: ADME, organism-based; conditions: in vivo, read-out: Drug uptake
[7] = Half life in nontumor bearing Balb/C mouse at 0.5 mg/kg; type: ADME, organism-based; conditions: in vivo

Compound `CCC[C@@H](CCO)Nc1nc(N)nc2cnn(Cc3ccc(CNC4CCOCC4)cc3OC)c12` has a remaining at 10 min, 0.5 µM [1] of 81%, a remaining at 10 min, 0.5 µM [2] of 75% and a clearance [3] of 149 mL/min/kg. For the same compound, the EC50 [4] was over 5 µM, the AUC(0-t) [5] was 0.111 µM·h and the concentration at 5 min [6] was 66 nM. For the same compound, the half-life [7] was 5.6 h.

— ChEMBL document CHEMBL5357082, “Identification and Optimization of Small Molecule Pyrazolopyrimidine TLR7 Agonists for Applications in Immuno-oncology” (ACS Med Chem Lett, 2024)
